In patent US20200147116A1, “Use of Paeoniflorin-6'-O-benzenesulfonate in treatment of Sjögren's syndrome” (NINGBO ZHIMING BIOTECHNOLOGY CO., LTD., priority 2017, published 2020):

How the values were obtained:
Format in all cases: in vivo
NOD model mice = test: Organic indexes (spleen, submaxillary gland, thymus) in NOD model mice
[1] = tested on: spleen CD4+ CD25+FOXP3+ T lymphocytes; test: Spleen CD4+ CD25+ FOXP3+ T lymphocytes in SS model mice (FIG. 5, 6); conditions: FIG. 6
Text: FIG. 5 Effects of CP-25 on spleen CD4^+ CD25^+FOXP3^+ T lymphocytes in SS model mice.
FIG. 6 Effects of CP-25 on spleen CD4^+ CD25^+FOXP3^+ T lymphocytes in SS model mice.

[2] = tested on: Sjögren's syndrome model mice; test: Water intake in Sjögren's syndrome model mice; conditions: therapeutic mice, after a week of administration; model control always tends to rise
Description: In this invention, low dose (17.5 mg/kg), medium dose (35 mg/kg) and high dose (70 mg/kg) of CP-25 were respectively administrated by gavage to each of randomly assigned group of Sjögren's syndrome model mice for two weeks. Water intake, saliva amount and submaxillary gland pathological analysis and score were determined respectively, on the day before administration, the 7th day and 14th day after administration. The therapeutic effects of CP-25 on Sjögren's syndrome were evaluated by comparison of changes of each index before and after treatment.
However, the water intake in mice of model control group always tends to rise.

[3] = tested on: spleen CD4+ IL-17A+ T lymphocytes; test: Spleen CD4+ IL-17A+ T lymphocytes in NOD model mice (FIG. 13)
Text: FIG. 13 Effects of CP-25 on spleen CD4^+ IL-17A^+ T lymphocytes in NOD model mice.

spleen T lymphocytes = test: Spleen T lymphocyte proliferation in NOD model mice (FIG. 12A)
Text: FIG. 12 Effects of CP-25 on spleen T and B lymphocyte proliferation in NOD model mice.
A: T lymphocytes; B: B lymphocytes

[4] = tested on: Sjögren's syndrome model mice (C57BL/6 female mice); test: Saliva amount in induced Sjögren's syndrome model mice (wet weight method after pilocarpine); conditions: for Saliva amount in SS mice, One week after administration / Saliva amount in SS mice, Two weeks after administration / Saliva amount in SS mice, Pre-administration: Example 1, C57BL/6 SS mice; for Saliva amount in SS mice, Pre-administration / Saliva amount, Pre-administration: baseline before administration; for Saliva amount, One week after: one week of administration; for Saliva amount, Two weeks after: two weeks of administration
Description: […] Water intake, saliva amount and submaxillary gland pathological analysis and score were determined respectively, on the day before administration, the 7th day and 14th day after administration. The therapeutic effects of CP-25 on Sjögren's syndrome were evaluated by comparison of changes of each index before and after treatment. 2 Sjögren's syndrome model mice: C57BL/6 female mice housed in a SPF environment with successful modeling (The animal model was made via repeated multi-point intracutaneous injection of submaxillary gland homogenate of homologous mice to tail and back of mice). The animal model was made via repeated multi-point intracutaneously injection of submaxillary gland homogenate of homologous mice to tail and back of mice, and the mice with successful modeling were randomly assigned to each group according to comprehensive conditions of mice. At the same time, the average weight and status of each group of mice should be as close as possible. […] […] High dose of said pharmaceutical should be incubated for half an hour before use. Before measurement, mice were anesthetized via intraperitoneal injection of 0.05 ml of 2.4% pentobarbital sodium, and the satisfactory anesthesia was smooth breathing, corneal reflex disappearance and limb muscle relaxation. After complete anesthesia, a mouse was placed in slightly tilted trendelenburg position, and its body was kept warm using the heater. The mouse was injected intraperitoneally with 0.1 ml of 0.025 mg/ml Pilocarpine, and 5 min later, a weighed cotton ball was placed in the mouth of the mouse for 10 min. After taking the ball out, the saliva weight of mice was measured by the wet weight method.

[5] = tested on: spleen CD4+ IL-17A+ T lymphocytes; test: Spleen CD4+ IL-17A+ T lymphocytes in SS model mice (FIG. 4)
Text: FIG. 4 Effects of CP-25 on spleen CD4^+ IL-17A^+ T lymphocytes in SS model mice.

[6] = tested on: spleen CD19+ CD27+ B lymphocytes; test: Spleen CD19+ CD27+ B lymphocytes in SS model mice (FIG. 7)
Text: FIG. 7 Effects of CP-25 on spleen CD19^+ CD27^+ B lymphocytes in SS model mice.

[7] = SS model mice, 17.5 mg/kg by gavage
[8] = SS model mice, 35 mg/kg by gavage

C[C@@]12C[C@@]3(O)O[C@H](O1)C1(COC(=O)c4ccccc4)[C@@H]3CC12OC1OC(COS(=O)(=O)c2ccccc2)C(O)C(O)C1O (some centres unmarked) [CP-25, Paeoniflorin-6′-O-benzenesulfonate]
Spleen index (NOD model mice; 17.5 mg/kg): 9.5 ± 4.2 mg/g | Submaxillary gland index (NOD model mice; 17.5 mg/kg): 4.5 ± 0.8^ mg/g | Thymus index (NOD model mice; 17.5 mg/kg): 1.3 ± 0.7 mg/g | Spleen index (NOD model mice; 35 mg/kg): 4.2 ± 0.6 mg/g | Submaxillary gland index (NOD model mice; 35 mg/kg): 4.3 ± 0.6 mg/g | Thymus index (NOD model mice; 35 mg/kg): 1.1 ± 0.6 mg/g | Spleen index (NOD model mice; 70 mg/kg): 4.3 ± 0.7 mg/g | Submaxillary gland index (NOD model mice; 70 mg/kg): 4.2 ± 0.6 mg/g | Thymus index (NOD model mice; 70 mg/kg): 1.4 ± 0.5 mg/g | Increasing of submaxillary gland index (in words) (NOD model mice; Example 5): significantly suppress the increasing | Ratio of CD4+ CD25+FOXP3+ Treg lymphocytes [1]: increase | Water intake [2]: begins to drop off | Ratio of spleen CD4+ IL-17A+ Th17 lymphocytes [3]: significantly inhibit | Spleen T lymphocyte proliferation (spleen T lymphocytes): significantly inhibit | Saliva amount in SS mice, One week after administration ([4]; 17.5 mg/kg): 17.83 ± 2.14 mg/each mouse/10 min | Saliva amount in SS mice, Two weeks after administration ([4]; 17.5 mg/kg): 17.67 ± 2.07^ mg/each mouse/10 min | Saliva amount in SS mice, One week after administration ([4]; 35 mg/kg): 18.33 ± 1.97 mg/each mouse/10 min | Saliva amount in SS mice, Two weeks after administration ([4]; 35 mg/kg): 23.17 ± 2.64 mg/each mouse/10 min | Saliva amount in SS mice, One week after administration ([4]; 70 mg/kg): 25.67 ± 1.63 mg/each mouse/10 min | Saliva amount in SS mice, Two weeks after administration ([4]; 70 mg/kg): 26.83 ± 1.47 mg/each mouse/10 min | Saliva amount in SS mice, Pre-administration ([4]; dose group 17.5 mg/kg): 22.67 ± 3.27 mg/each mouse/10 min | Saliva amount in SS mice, Pre-administration ([4]; dose group 35 mg/kg): 23.01 ± 2.37 mg/each mouse/10 min | Saliva amount in SS mice, Pre-administration ([4]; dose group 70 mg/kg): 22.75 ± 3.67 mg/each mouse/10 min | Saliva amount, One week after [4, 7]: 17.83 ± 2.14 mg/10 min | Saliva amount, Two weeks after [4, 7]: 17.67 ± 2.07^ mg/10 min | Saliva amount, One week after [4, 8]: 18.33 ± 1.97 mg/10 min | Saliva amount, Two weeks after [4, 8]: 23.17 ± 2.64 mg/10 min | Saliva amount, One week after ([4]; SS model mice, 70 mg/kg): 25.67 ± 1.63 mg/10 min | Saliva amount, Two weeks after ([4]; SS model mice, 70 mg/kg): 26.83 ± 1.47 mg/10 min | Saliva amount, Pre-administration ([4]; SS model mice, dose group 17.5 mg/kg by gavage): 22.67 ± 3.27 mg/10 min | Saliva amount, Pre-administration ([4]; SS model mice, dose group 35 mg/kg by gavage): 23.01 ± 2.37 mg/10 min | Saliva amount, Pre-administration ([4]; SS model mice, dose group 70 mg/kg): 22.75 ± 3.67 mg/10 min | Curative effect judged on saliva amount after one week of medication ([4]; SS model mice, high dose of CP-25, TGP, Pae, HCQ at the doses of Table 3): had curative effects | Efficacy judged on saliva amount with medication extended to two weeks ([4]; SS model mice, two weeks of medication): more significant efficacy | Saliva amount (in words) ([4]; Sjögren's syndrome mice, Example 1): significantly increase | Onset time of curative effects versus comparators ([4]; Sjögren's syndrome mice, Example 1, saliva amount): earlier than that of TGP, Pae or HCQ | Ratio of CD4+ IL-17A+ Th17 lymphocytes [5]: significantly inhibit | Ratio of spleen CD19+ CD27+ B lymphocytes [6]: significantly increase
